From ChEMBL document CHEMBL1201862, “PubChem BioAssay data set” (2004) come the findings set out here.

Calls of active or inactive are those of the source.

Usually EC50 stands for the midpoint of the concentration-response curve. Broadly, the IC50 is the point on the concentration scale where inhibition reaches its midpoint. One may read the CC50 as the concentration that lowers cell viability or growth by half. Usually AC50 stands for the concentration giving half of the maximal activity seen.

A short description of assay [1]: luciferase reporter signal suppression in cells – H4 neuroglioma cells, luminescence, dose response (AID 1990). In kind it is functional, cell-based.
A short description of assay [2]: Luminescence Cell-Based Dose Response HTS to Identify Inhibitors of 5'UTR Stem-Loop Driven Prion Protein mRNA Translation in H4 Neuroglioblastoma Cells. [Related pubchem assays: 1827 (Project Summary), 1813 (Primary HTS)]. In kind it is functional.
Assay [3] is described as follows: alpha-synuclein stem-loop luciferase translation blockers – H4 neuroglioma cells, luminescence, confirmation (AID 1988). In kind it is functional, cell-based.
The next assay deals with CHO-K1. Briefly: Counterscreen for antagonists of the orexin 1 receptor (OX1R; HCRTR1): Homogeneous time resolved fluorescence (HTRF)-based cell-based dose response assay to identify antagonists of the parental CHO-K1 cell line. [Related pubchem assays (depositor defined):AID434989, AID435008, AID463079, AID485270, AID492963, AID492964, AID492965, AID493232, AID504699, AID504701]. To be noted: Cricetulus griseus. The format is functional.

Assay [4] in a line: Counterscreen for antagonists of the orexin 1 receptor (OX1R; HCRTR1): Fluorescence-based cell-based high throughput dose response assay to identify antagonists of the parental CHO cell line. [Related pubchem assays (depositor defined):AID434989, AID435008, AID463079, AID485270, AID492963, AID492964, AID492965, AID493232, AID504699, AID504701]. In kind it is functional. In general terms: Counterscreens check selectivity or assay interference.

Assay [5] concerns the target T1, Orexin/Hypocretin receptor type 1 (Homo sapiens, UniProt O43613).
T1 sequence (O43613 whole entry): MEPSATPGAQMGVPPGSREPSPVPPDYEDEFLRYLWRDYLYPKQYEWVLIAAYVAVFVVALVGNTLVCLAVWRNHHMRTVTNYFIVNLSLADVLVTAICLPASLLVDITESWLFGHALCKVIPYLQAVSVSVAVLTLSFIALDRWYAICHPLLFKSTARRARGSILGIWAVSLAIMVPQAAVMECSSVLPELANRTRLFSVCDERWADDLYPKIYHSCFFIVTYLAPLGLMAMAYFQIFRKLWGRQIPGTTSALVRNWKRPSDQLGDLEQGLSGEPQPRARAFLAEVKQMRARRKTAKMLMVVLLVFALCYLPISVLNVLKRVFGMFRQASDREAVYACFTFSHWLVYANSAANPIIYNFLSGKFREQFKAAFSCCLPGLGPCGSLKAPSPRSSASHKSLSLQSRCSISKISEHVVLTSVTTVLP
Briefly: Homogeneous Time Resolved Fluorescence (HTRF)-based cell-based high throughput dose response assay for antagonists of the orexin 1 receptor (OX1R; HCRTR1). [Related pubchem assays (depositor defined):AID434989, AID435008, AID463079, AID485270, AID492963, AID492964, AID492965, AID493232, AID504717, AID504718]. The format is functional. (In general: In TR-FRET formats the signal depends on donor and acceptor labels being close together.)

The target of assay [6] is T1, Orexin/Hypocretin receptor type 1. Briefly: Fluorescence-based cell-based high throughput dose response assay for antagonists of the orexin 1 receptor (OX1R; HCRTR1). [Related pubchem assays (depositor defined):AID434989, AID435008, AID463079, AID485270, AID492963, AID492964, AID492965, AID493232, AID504717, AID504718]. In kind it is functional.
Assay [7] addresses T2, Orexin receptor type 2 (Homo sapiens, UniProt O43614). Briefly: Counterscreen assay for antagonists of the orexin 1 receptor (OX1R; HCRTR1): Fluorescence-based cell-based dose response assay for antagonists of the orexin 2 receptor (OX2R; HCRTR2), run by assay provider. In kind it is functional.
Assay [8] concerns the target T2, Orexin receptor type 2. Briefly: Counterscreen assay for antagonists of the orexin 1 receptor (OX1R; HCRTR1): Homogeneous Time Resolved Fluorescence (HTRF)-based cell-based dose response assay for antagonists of the orexin 2 receptor (OX2R; HCRTR2), run by assay provider. The format is functional.
A short description of assay [9]: viability loss in Vero cells – cell-based, purified and synthesized samples, set 8, cytotoxicity control for M. tuberculosis inhibitor project (AID 602431). The format is functional. Conditions: Mycobacterium tuberculosis.
The nature of assay [10]: THP-1 cell cytotoxicity, cytotoxicity control, set 6 (AID 602433). In kind it is functional. To be noted: Mycobacterium tuberculosis.
Assay [11] has as its target Glycogen synthase kinase-3 beta (Homo sapiens, UniProt P49841). Briefly: inhibition of human GSK3B activity – biochemical, microfluidics, dry powder samples, set 2, dose response (AID 623989). The format is functional.
The target in assay [12] is Glycogen synthase kinase-3 alpha (Homo sapiens, UniProt P49840). Briefly: GSK3A enzyme blockers, homolog specificity check – biochemical, microfluidics, dry powder samples, set 2, selectivity assay for GSK3beta inhibitor project, dose response (AID 623978). The format is functional.
Chain of Glycogen synthase kinase-3 alpha (P49840 whole entry): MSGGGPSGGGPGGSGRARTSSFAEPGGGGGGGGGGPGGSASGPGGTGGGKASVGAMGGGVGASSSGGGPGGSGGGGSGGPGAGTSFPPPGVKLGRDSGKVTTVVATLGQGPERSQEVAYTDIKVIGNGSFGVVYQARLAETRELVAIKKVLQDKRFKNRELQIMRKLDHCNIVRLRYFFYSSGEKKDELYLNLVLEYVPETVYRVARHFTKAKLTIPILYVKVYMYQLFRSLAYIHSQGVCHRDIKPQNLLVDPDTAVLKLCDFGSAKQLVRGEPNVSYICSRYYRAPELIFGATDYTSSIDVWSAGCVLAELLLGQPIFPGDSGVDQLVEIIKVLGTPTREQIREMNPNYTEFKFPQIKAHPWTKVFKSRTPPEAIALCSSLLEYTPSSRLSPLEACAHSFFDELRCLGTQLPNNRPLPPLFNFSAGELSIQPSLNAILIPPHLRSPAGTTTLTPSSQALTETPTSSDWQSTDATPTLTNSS
Assay [13] addresses Cyclin-dependent kinase 5/CDK5 activator 1 (Homo sapiens, UniProt Q00535). Briefly: inhibitors of human CDK5 activity – biochemical, microfluidic mobility shift, dry powder, set 2, selectivity assay for GSK3beta inhibitor project, dose response (AID 623979). The format is functional.

T2 sequence (O43614 whole entry): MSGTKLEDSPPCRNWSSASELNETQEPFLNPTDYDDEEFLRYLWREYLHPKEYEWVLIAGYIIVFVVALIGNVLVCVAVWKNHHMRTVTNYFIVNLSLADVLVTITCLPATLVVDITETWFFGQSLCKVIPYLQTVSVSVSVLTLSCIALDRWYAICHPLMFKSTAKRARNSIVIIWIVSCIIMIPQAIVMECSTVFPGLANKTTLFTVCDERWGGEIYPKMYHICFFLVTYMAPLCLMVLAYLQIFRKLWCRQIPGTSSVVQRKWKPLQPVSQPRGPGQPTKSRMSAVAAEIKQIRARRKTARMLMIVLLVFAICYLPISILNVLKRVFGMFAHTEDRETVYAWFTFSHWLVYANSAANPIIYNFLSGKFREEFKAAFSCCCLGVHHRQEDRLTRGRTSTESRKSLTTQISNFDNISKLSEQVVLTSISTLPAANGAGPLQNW
Chain of Glycogen synthase kinase-3 beta (P49841 whole entry): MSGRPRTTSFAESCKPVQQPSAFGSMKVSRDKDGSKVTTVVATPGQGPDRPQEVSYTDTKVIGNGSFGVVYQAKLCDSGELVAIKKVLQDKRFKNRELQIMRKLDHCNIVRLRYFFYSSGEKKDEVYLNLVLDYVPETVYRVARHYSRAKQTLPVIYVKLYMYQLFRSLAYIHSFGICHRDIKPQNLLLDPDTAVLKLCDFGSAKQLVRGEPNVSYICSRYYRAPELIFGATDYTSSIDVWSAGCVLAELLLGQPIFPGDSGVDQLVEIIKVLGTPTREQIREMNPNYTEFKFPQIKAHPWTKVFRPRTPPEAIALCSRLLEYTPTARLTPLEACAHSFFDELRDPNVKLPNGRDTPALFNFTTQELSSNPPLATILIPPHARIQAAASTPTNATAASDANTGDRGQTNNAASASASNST
Chain of Cyclin-dependent kinase 5/CDK5 activator 1 (Q00535 whole entry): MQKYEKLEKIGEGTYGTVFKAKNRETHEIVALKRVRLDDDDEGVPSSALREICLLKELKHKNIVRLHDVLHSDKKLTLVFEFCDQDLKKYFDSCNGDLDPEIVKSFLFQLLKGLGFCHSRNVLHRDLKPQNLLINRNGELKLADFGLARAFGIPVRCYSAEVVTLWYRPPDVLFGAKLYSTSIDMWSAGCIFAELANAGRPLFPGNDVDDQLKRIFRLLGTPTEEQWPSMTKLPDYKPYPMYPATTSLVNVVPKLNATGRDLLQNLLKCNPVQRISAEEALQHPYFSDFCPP
Chain of Cyclin-dependent kinase 5/CDK5 activator 1 (Q15078 whole entry, further chain): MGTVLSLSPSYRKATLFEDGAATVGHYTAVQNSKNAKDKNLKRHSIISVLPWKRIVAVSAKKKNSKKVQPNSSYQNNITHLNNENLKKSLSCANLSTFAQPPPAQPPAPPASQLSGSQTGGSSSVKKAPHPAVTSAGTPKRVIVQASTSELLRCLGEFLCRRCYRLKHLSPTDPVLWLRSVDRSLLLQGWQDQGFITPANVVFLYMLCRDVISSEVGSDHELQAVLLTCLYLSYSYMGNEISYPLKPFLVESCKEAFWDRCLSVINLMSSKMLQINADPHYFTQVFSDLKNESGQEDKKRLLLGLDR

As to `CN1C(=O)C2(N=c3ccccc3=N2)c2ccccc21`, the EC50 in assay [1] is 79.5 µM (active); in assay [2], > 120 µM (not active); in [3] it was > 120 µM (not active). Besides, the IC50 with CHO-K1 was > 66.2 µM (inactive); in [4], > 49.7 µM (inactive); in assay [5], 3.22 µM (active); in assay [6], 13.8 µM (inactive); on Orexin receptor type 2 [7], > 88.8 µM (inactive); at Orexin receptor type 2 [8], > 50 µM (inactive).
With `COc1ccc(NC(=O)NCc2ccc(C(=O)N3CCC(c4ccccc4)CC3)cc2)cc1`, the CC50 in assay [9] was 91.3 µM (active); in assay [10], > 98.9 µM (active).
For `Cc1cccc(C(=O)N[C@H]2C[C@@H](n3cnc(NC(=O)Cc4cccc5ccccc45)c3)C2)n1`, the AC50 in assay [11] is 107 nM (active); in assay [12], 361 nM (active); in assay [13], 38 nM (active).
